# Source: US9522888B2, “Substituted bicyclic compounds” (BRISTOL-MYERS SQUIBB COMPANY, priority 2014, dated 2016)
# pEC50, pIC50: −log10 of the molar value.
# Assays:
# [1] = target: S1P3 (membranes prepared from EDG3-Gal5-bla HEK293T cells) (Homo sapiens (Human), UniProt Q99500); assay: Receptor [35S] GTPγS binding assay (S1P3 GTPγS); type: biochemical; conditions: phosphate examples; read-out: S1P3 GTPγS
# How it was run: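 Membranes (3 μg protein/well) from S1P1/CHO cells or EDG3-Gal5-bla HEK293T cells (S1P3) were incubated 45 min at room temperature with 0.2 nM final [35S]GTPγS in HEPES pH 7.5 buffer with 10 μM GDP, MgCl2 and saponin. Bound label counted after filtration; EC50 from 11-point, 3-fold dilutions.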
# human S1P1 = human S1P1 (Homo sapiens (Human), UniProt P21453); assay: S1P1 binding assay (33P-S1P radioligand competition, CHO cell membranes); conditions: phosphate examples; read-out: S1P1 Binding
# human S1P1, sequence (P21453 whole entry): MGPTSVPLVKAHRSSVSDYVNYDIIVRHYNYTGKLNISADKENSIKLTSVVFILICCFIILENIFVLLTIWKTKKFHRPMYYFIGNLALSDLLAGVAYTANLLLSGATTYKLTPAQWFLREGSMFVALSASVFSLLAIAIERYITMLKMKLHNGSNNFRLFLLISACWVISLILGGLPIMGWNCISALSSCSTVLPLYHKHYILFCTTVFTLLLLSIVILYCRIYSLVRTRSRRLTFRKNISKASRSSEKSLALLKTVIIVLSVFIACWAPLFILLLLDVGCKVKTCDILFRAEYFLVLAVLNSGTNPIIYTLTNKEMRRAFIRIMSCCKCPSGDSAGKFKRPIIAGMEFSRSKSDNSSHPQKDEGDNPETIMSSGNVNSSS
# How it was run: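 Radioligand is 33P-S1P, competing for membranes from human S1P1-expressing CHO cells. Membranes resuspended in 50 mM HEPES pH 7.5, 100 mM NaCl, 1 mM MgCl2, 2 mM EDTA.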
# [2] = target: S1P1 (membranes prepared from S1P1/CHO cells) (Homo sapiens (Human), UniProt P21453); assay: Receptor [35S] GTPγS binding assay (S1P1 GTPγS); type: biochemical; conditions: phosphate examples; read-out: S1P1 GTPγS
# S1P1 (membranes prepared from S1P1/CHO cells), sequence (P21453 whole entry): as above
# How it was run: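 Membranes from S1P1-expressing CHO cells (3 μg protein/well) incubated with compound (11-point, 3-fold dilution) and 0.2 nM final [35S]GTPγS, 45 min at room temperature. Assay buffer: 20 mM HEPES pH 7.5, 10 mM MgCl2, 150 mM NaCl, 10 μM GDP, 0.1% fatty-acid-free BSA, 10 μg/ml saponin. Filter-bound radioactivity counted by scintillation; EC50 derived.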
# hS1P1/CHO cells = hS1P1/CHO cells (Homo sapiens (Human), UniProt P21453); assay: hS1P1 ERK phosphorylation (S1P1 pERK); type: cell-based; conditions: phosphate examples
# hS1P1/CHO cells, sequence (P21453 whole entry): as above
# How it was run: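 CHO cells expressing human S1P1, serum-starved 2 h, exposed to compound in HBSS/20 mM HEPES for 7 min at 37° C. Lysates assayed for phospho-ERK by SureFire kit; response given as % activation relative to 10 μM S1P.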
# S1P3 (membranes prepared from EDG3-Gal5-bla HEK293T cells), sequence (Q99500 whole entry): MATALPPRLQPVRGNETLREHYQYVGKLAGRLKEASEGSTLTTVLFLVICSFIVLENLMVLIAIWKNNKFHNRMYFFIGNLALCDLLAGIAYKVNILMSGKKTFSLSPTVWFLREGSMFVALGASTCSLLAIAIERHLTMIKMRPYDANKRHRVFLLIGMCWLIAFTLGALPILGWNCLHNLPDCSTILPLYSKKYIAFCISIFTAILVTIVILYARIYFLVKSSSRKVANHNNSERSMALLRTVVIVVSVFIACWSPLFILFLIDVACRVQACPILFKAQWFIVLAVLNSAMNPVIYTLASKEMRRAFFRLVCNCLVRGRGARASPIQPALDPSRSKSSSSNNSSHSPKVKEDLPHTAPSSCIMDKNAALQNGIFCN
pEC50 [1],pIC50 (human S1P1),pEC50 [2],pEC50 (hS1P1/CHO cells),Compound
< 6.20,> 8.00,> 8.00,> 8.00,C=CCCOC[C@@H]1CCc2cc([C@H]3CC[C@](N)(COP(=O)(O)O)C3)ccc2C1 [compound 452]
< 6.20,7.00 to 8.00,7.00 to 8.00,> 8.00,CC(C)=CCOC[C@@H]1CCc2cc([C@H]3CC[C@](N)(COP(=O)(O)O)C3)ccc2C1 [compound 453]
< 6.20,> 8.00,7.00 to 8.00,> 8.00,C=CCCCOC[C@@H]1CCc2cc([C@H]3CC[C@](N)(COP(=O)(O)O)C3)ccc2C1 [compound 454]
< 6.20,> 8.00,> 8.00,> 8.00,CC/C=C\COC[C@@H]1CCc2cc([C@H]3CC[C@](N)(COP(=O)(O)O)C3)ccc2C1 [compound 455]
< 6.20,7.00 to 8.00,> 8.00,> 8.00,CCC=CCOC[C@@H]1CCc2cc([C@H]3CC[C@](N)(COP(=O)(O)O)C3)ccc2C1 [compound 456]
< 6.20,> 8.00,7.00 to 8.00,> 8.00,CC(C)CCOC[C@@H]1CCc2cc([C@H]3CC[C@](N)(COP(=O)(O)O)C3)ccc2C1 [compound 457]
< 6.20,> 8.00,7.00 to 8.00,> 8.00,COCCCOC[C@@H]1CCc2cc([C@H]3CC[C@](N)(COP(=O)(O)O)C3)ccc2C1 [compound 458]
< 6.20,> 8.00,7.00 to 8.00,> 8.00,N[C@]1(COP(=O)(O)O)CC[C@H](c2ccc3c(c2)CC[C@H](COc2ccccc2)C3)C1 [compound 459]
< 6.20,> 8.00,> 8.00,> 8.00,CC(C)=CCCOC[C@@H]1CCc2cc([C@H]3CC[C@](N)(COP(=O)(O)O)C3)ccc2C1 [compound 461]
< 7.30,> 8.00,> 8.00,> 8.00,CCCC=CCOC[C@@H]1CCc2cc([C@H]3CC[C@](N)(COP(=O)(O)O)C3)ccc2C1 [compound 462]
< 6.20,> 8.00,> 8.00,7.00 to 8.00,CC(C)(C)CCOC[C@@H]1CCc2cc([C@H]3CC[C@](N)(COP(=O)(O)O)C3)ccc2C1 [compound 464]
< 6.20,7.00 to 8.00,7.00 to 8.00,7.00 to 8.00,Cc1ccc(OC[C@H]2CCc3cc([C@H]4CC[C@](N)(COP(=O)(O)O)C4)ccc3C2)cc1 [compound 466]
< 6.20,7.00 to 8.00,7.00 to 8.00,7.00 to 8.00,Cc1ccc(OC[C@@H]2CCc3cc([C@H]4CC[C@](N)(COP(=O)(O)O)C4)ccc3C2)cc1 [compound 467]
< 6.20,> 8.00,7.00 to 8.00,7.00 to 8.00,Cc1ccccc1OC[C@H]1CCc2cc([C@H]3CC[C@](N)(COP(=O)(O)O)C3)ccc2C1 [compound 468]
< 6.20,7.00 to 8.00,7.00 to 8.00,> 8.00,Cc1ccccc1OC[C@@H]1CCc2cc([C@H]3CC[C@](N)(COP(=O)(O)O)C3)ccc2C1 [compound 469]
< 6.20,6.00 to 7.00,7.00 to 8.00,> 8.00,Cc1cccc(OC[C@@H]2CCc3cc([C@H]4CC[C@](N)(COP(=O)(O)O)C4)ccc3C2)c1 [compound 470]
< 6.20,6.00 to 7.00,6.00 to 7.00,> 8.00,N[C@]1(COP(=O)(O)O)CC[C@H](c2ccc3c(c2)CC[C@@H](COCc2cccs2)C3)C1 [compound 472]
< 6.20,> 8.00,7.00 to 8.00,> 8.00,Cc1ccc(COC[C@@H]2CCc3cc([C@H]4CC[C@](N)(COP(=O)(O)O)C4)ccc3C2)cc1 [compound 474]
< 6.20,> 8.00,7.00 to 8.00,> 8.00,COc1ccccc1OC[C@@H]1CCc2cc([C@H]3CC[C@](N)(COP(=O)(O)O)C3)ccc2C1 [compound 475]
< 6.20,7.00 to 8.00,7.00 to 8.00,7.00 to 8.00,COc1ccc(OC[C@@H]2CCc3cc([C@H]4CC[C@](N)(COP(=O)(O)O)C4)ccc3C2)cc1 [compound 476]
< 6.20,> 8.00,7.00 to 8.00,> 8.00,COc1cncc(OC[C@@H]2CCc3cc([C@H]4CC[C@](N)(COP(=O)(O)O)C4)ccc3C2)c1 [compound 477]

pEC50 [1],pIC50 (human S1P1),pEC50 [2],pEC50 (hS1P1/CHO cells),Compound
< 6.20,7.00 to 8.00,7.00 to 8.00,7.00 to 8.00,CC(C)c1cccc(OC[C@@H]2CCc3cc([C@H]4CC[C@](N)(COP(=O)(O)O)C4)ccc3C2)c1 [compound 478]
< 6.20,6.00 to 7.00,7.00 to 8.00,7.00 to 8.00,CC(C)c1ccc(OC[C@@H]2CCc3cc([C@H]4CC[C@](N)(COP(=O)(O)O)C4)ccc3C2)cc1 [compound 479]
< 6.20,5.00 to 6.00,> 8.00,6.00 to 7.00,COCc1cccc(OC[C@@H]2CCc3cc([C@H]4CC[C@](N)(COP(=O)(O)O)C4)ccc3C2)c1 [compound 480]
< 6.20,> 8.00,> 8.00,> 8.00,COc1cccc(COC[C@H]2CCc3cc([C@H]4CC[C@](N)(COP(=O)(O)O)C4)ccc3C2)c1 [compound 481]
< 6.20,6.00 to 7.00,7.00 to 8.00,7.00 to 8.00,COc1ccc(COC[C@@H]2CCc3cc([C@H]4CC[C@](N)(COP(=O)(O)O)C4)ccc3C2)cc1 [compound 482]
< 6.20,6.00 to 7.00,7.00 to 8.00,7.00 to 8.00,COc1ccc(F)c(OC[C@@H]2CCc3cc([C@H]4CC[C@](N)(COP(=O)(O)O)C4)ccc3C2)c1 [compound 484]
< 6.20,7.00 to 8.00,7.00 to 8.00,7.00 to 8.00,COc1cc(OC[C@@H]2CCc3cc([C@H]4CC[C@](N)(COP(=O)(O)O)C4)ccc3C2)ccc1F [compound 485]
< 6.20,> 8.00,7.00 to 8.00,> 8.00,CCc1ccc(COC[C@@H]2CCc3cc([C@H]4CC[C@](N)(COP(=O)(O)O)C4)ccc3C2)s1 [compound 489]
< 6.20,> 8.00,6.00 to 7.00,7.00 to 8.00,CN(C)Cc1cccc(OC[C@@H]2CCc3cc([C@H]4CC[C@](N)(COP(=O)(O)O)C4)ccc3C2)c1 [compound 490]
< 6.20,> 8.00,> 8.00,7.00 to 8.00,COc1ccc(OC[C@@H]2CCc3cc([C@H]4CC[C@](N)(COP(=O)(O)O)C4)ccc3C2)cc1OC [compound 491]
< 6.20,> 8.00,> 8.00,7.00 to 8.00,COc1cc(OC[C@@H]2CCc3cc([C@H]4CC[C@](N)(COP(=O)(O)O)C4)ccc3C2)ccc1Cl [compound 493]
< 6.20,7.00 to 8.00,7.00 to 8.00,7.00 to 8.00,COc1ccc(OC[C@@H]2CCc3cc([C@H]4CC[C@](N)(COP(=O)(O)O)C4)ccc3C2)c(F)c1F [compound 494]
< 6.20,7.00 to 8.00,7.00 to 8.00,> 8.00,CN(C)C(=O)c1cccc(OC[C@@H]2CCc3cc([C@H]4CC[C@](N)(COP(=O)(O)O)C4)ccc3C2)c1 [compound 495]
< 6.20,> 8.00,> 8.00,> 8.00,Cn1nc(OC[C@@H]2CCc3cc([C@H]4CC[C@](N)(COP(=O)(O)O)C4)ccc3C2)cc1C(F)(F)F [compound 496]
< 6.20,7.00 to 8.00,> 8.00,> 8.00,N[C@]1(COP(=O)(O)O)CC[C@H](c2ccc3c(c2)CC[C@@H](COc2cccc(OC(F)(F)F)c2)C3)C1 [compound 497]
< 6.20,7.00 to 8.00,6.00 to 7.00,7.00 to 8.00,COc1cc(OC[C@@H]2CCc3cc([C@H]4CC[C@](N)(COP(=O)(O)O)C4)ccc3C2)ccc1C(C)(C)C [compound 498]
< 6.20,> 8.00,7.00 to 8.00,7.00 to 8.00,N[C@]1(COP(=O)(O)O)CC[C@H](c2ccc3c(c2)CC[C@@H](COCc2ccc(C(F)(F)F)s2)C3)C1 [compound 499]
< 6.20,> 8.00,> 8.00,> 8.00,CCCSC[C@@H]1CCc2cc([C@H]3CC[C@](N)(COP(=O)(O)O)C3)ccc2C1 [compound 503]
< 6.20,> 8.00,7.00 to 8.00,> 8.00,CC(C)CSC[C@@H]1CCc2cc([C@H]3CC[C@](N)(COP(=O)(O)O)C3)ccc2C1 [compound 504]
< 6.20,7.00 to 8.00,7.00 to 8.00,7.00 to 8.00,CCCCSC[C@H]1CCc2cc([C@@H]3CC[C@](N)(COP(=O)(O)O)C3)ccc2C1 [compound 505]
